{"source": "paper PMC6927504", "about": "“Screening of House Dust from Chinese Homes for Chemicals with Liver X Receptors Binding Activities and Characterization of Atherosclerotic Activity Using an in Vitro Macrophage Cell Line and ApoE^−/− Mice” (Environmental Health Perspectives, 2019)", "key": {"atherosclerotic mice": {"test_system": "atherosclerotic mice", "set-up": "method as in Joseph et al. 2002", "conditions": "ref Joseph et al. 2002; cited from earlier work"}, "human LXRα [1]": {"target": "T1, human LXRα (Homo sapiens, UniProt Q13133)", "T1 construct": "expressed in transfected cells; host or cells: Saccharomyces cerevisiae Y187", "T1 sequence (Q13133 205-447)": "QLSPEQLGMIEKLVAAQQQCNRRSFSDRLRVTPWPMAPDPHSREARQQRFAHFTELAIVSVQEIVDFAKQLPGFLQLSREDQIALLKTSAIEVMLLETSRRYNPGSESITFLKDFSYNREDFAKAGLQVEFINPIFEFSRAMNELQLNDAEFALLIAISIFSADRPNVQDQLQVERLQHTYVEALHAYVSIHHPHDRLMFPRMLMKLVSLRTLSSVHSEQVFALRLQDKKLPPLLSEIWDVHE", "test": "cell-based"}, "human LXRβ [2]": {"target": "T2, human LXRβ (Homo sapiens, UniProt P55055)", "T2 sequence (P55055 219-460)": "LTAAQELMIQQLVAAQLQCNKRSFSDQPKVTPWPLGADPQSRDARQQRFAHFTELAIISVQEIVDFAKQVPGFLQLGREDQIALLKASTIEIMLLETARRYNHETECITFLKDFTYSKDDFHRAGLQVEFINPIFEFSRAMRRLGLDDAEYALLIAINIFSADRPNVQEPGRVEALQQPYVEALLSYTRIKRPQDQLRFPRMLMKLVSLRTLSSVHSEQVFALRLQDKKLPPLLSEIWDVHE", "test": "Yeast two-hybrid assay (LXRβ LBD with coactivator TIF2, β-galactosidase readout)"}, "human LXRβ [3]": {"target": "T2, human LXRβ", "test": "cell-based"}, "human LXRα [4]": {"target": "T3, human LXRα (Homo sapiens, UniProt Q13133)", "T3 construct": "the full-length human LXRα gene was amplified by polymerase chain reaction (PCR); made in house; host or cells: E. coli BL21", "T3 sequence (Q13133 1-447)": "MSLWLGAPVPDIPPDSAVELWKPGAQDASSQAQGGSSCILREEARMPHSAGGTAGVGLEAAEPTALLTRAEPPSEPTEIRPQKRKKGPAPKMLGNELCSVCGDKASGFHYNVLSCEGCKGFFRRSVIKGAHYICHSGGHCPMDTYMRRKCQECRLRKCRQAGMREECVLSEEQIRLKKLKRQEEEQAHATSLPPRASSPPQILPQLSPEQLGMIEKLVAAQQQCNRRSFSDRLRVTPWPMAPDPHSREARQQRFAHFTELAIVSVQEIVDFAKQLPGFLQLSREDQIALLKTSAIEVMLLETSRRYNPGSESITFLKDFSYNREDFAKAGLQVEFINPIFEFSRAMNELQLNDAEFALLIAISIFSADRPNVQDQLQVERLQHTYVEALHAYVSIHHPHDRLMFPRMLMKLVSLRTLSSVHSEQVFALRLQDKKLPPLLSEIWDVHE", "assay_type": "binding"}, "ABCA1": {"test_system": "ABCA1", "test": "qRT-PCR of LXR target gene ABCA1 in RAW264.7 macrophages", "assay_type": "cell-based", "conditions": "TO901317 at 5–100 nM with TPHP 10,000 nM", "method": "(§1) RAW264.7 cells were obtained from the National Infrastructure of Cell Line Resource of Beijing, China, and the cells used for the experiment were cultured for at least three passages. Dulbecco’s Modified Eagle’s Medium (DMEM)-F12 medium containing 10% fetal bovine serum (FBS) was employed to culture the RAW264.7 cells. RAW264.7 cells were incubated at 37°C with 5% carbon dioxide. The RAW264.7 cells were plated at 2.5×10^5 cells/well (6-well plates), 6.0×10^4 cells/well (24-well plates), and 10^4 cells/well (96-well plates). The RAW264.7 cells were plated and grown overnight; then the medium was removed and fresh DMEM-F12 contained with 0.1% DMSO (control; n=3 ) or TPHP at the concentrations of 1–20,000 nM ( n=3 per group) was added. […] Then the cells were used for the quantitative reverse transcription (qRT)-PCR, cellular cholesterol efflux assay, and foam cell formation experiment.\n(§2) Total RNA was isolated from RAW264.7 cells and mouse peritoneal macrophages using TRIzol reagent according to the manufacturer’s instructions. Then a Nanovue Plus™ spectrophotometer (GE Healthcare Life Science) was used to analyze the concentration, quality, and purity of the RNA. Total RNA ( 1μg ) was mixed with oligo deoxythymine (dT) ( 1μL ) at 70°C for 5 min and then combined with a mixture containing Moloney murine leukemia virus (MMLV) reverse transcriptase ( 1μL ), deoxy-ribonucleoside triphosphate (dNTP) ( 1.25μL ), Recombinant RNasin® Ribonuclease Inhibitor (Promega) ( 0.65μL ), and MMLV buffer ( 5μL ) at 42°C for 60 min. The SYBR® Green PCR Kit (TOYOBO) was used for RT-PCR analysis. Real-time fluorescence detection was performed using the StepOnePlus™ sequence detection system (Applied Biosystems). […] The following primers were designed and purchased from Sangon Biotech:\n(§3) • actin: 5′-[…]-3′ and 5′-[…]-3′ ATP-binding cassette transporter A1 (ABCA1): 5′-[…]-3′ and 5′-[…]-3′ • ATP-binding cassette transporter G1 (ABCG1): 5′-[…]-3′ and 5′-[…]-3′."}, "ABCG1": {"test_system": "ABCG1", "test": "qRT-PCR of LXR target gene ABCG1 in RAW264.7 macrophages", "assay_type": "cell-based", "conditions": "TO901317 at 5–100 nM with TPHP 10,000 nM", "method": "as §1, §2, §3"}, "[5]": {"conditions": "dust standard reference material SRM2585"}, "[6]": {"conditions": "range over indoor dust samples (Table S4)"}}, "note": "Like-named read-outs stand apart in the source and are kept apart here."}
{"smiles": "O=C(O)Cc1cccc(OCCCN(Cc2cccc(C(F)(F)F)c2Cl)CC(c2ccccc2)c2ccccc2)c1", "note": "[GW3965]", "values": [{"measurement": "Atherosclerotic plaques", "setting": "atherosclerotic mice", "result": "promoted regression of atherosclerotic plaques"}, {"measurement": "Foam cell formation", "setting": "atherosclerotic mice", "result": "inhibited foam cell formation"}]}
{"smiles": "O=[N+]([O-])c1ccc(O)cc1", "note": "[PNP, p-nitrophenol]", "values": [{"measurement": "EC50", "setting": "human LXRα [1]; agonist mode, β-galactosidase activity, n=3", "result": 14, "unit": "µM"}, {"measurement": "EC50", "setting": "human LXRβ [2]", "result": 15.1, "unit": "µM"}]}
{"smiles": "CCCCC(CC)COP(=O)(Oc1ccccc1)Oc1ccccc1", "note": "(centres unmarked) [EHDPP, 2-ethylhexyl diphenyl phosphate]", "values": [{"measurement": "IC50", "setting": "human LXRα [1]", "result": 5.69, "unit": "µM"}, {"measurement": "Contribution to the LXRα-antagonist activity of SRM2585", "setting": "human LXRα [1]; [5]", "result": 3.01, "unit": "%"}, {"measurement": "Share of the LXRα-antagonist activity of indoor dust explained by the chemical", "setting": "human LXRα [1]; [6]", "result": "0.01–25.02%"}, {"measurement": "IC50", "setting": "human LXRβ [3]", "result": 2.17, "unit": "µM"}, {"measurement": "Contribution to the LXRβ-antagonist activity of SRM2585", "setting": "human LXRβ [2]; [5]", "result": 1.55, "unit": "%"}, {"measurement": "Share of the LXRβ-antagonist activity of indoor dust explained by the chemical", "setting": "human LXRβ [2]; [6]", "result": "0.01–22.92%"}]}
{"smiles": "CCOC(=O)c1ccc(CN(Cc2ccc(-c3cccc(S(C)(=O)=O)c3)cc2)S(=O)(=O)c2c(C)cc(C)cc2C)o1", "note": "[SR9238, reference compound]", "values": [{"measurement": "IC50", "setting": "human LXRα [1]; read-out: IC50 for LXRα (antagonist activity)", "result": 0.825, "unit": "µM"}, {"measurement": "IC50", "setting": "human LXRβ [3]", "result": 0.446, "unit": "µM"}]}
{"smiles": "O=S(=O)(c1ccccc1)N(CC(F)(F)F)c1ccc(C(O)(C(F)(F)F)C(F)(F)F)cc1", "note": "[TO901317]", "values": [{"measurement": "Average percentage pulled down of the spiked concentration", "setting": "human LXRα [4]; His-TF-LXRα group", "result": 89, "unit": "%"}, {"measurement": "Average percentage pulled down of the spiked concentration", "setting": "human LXRα [4]; control group (His-TF protein without LXRα)", "result": 10, "unit": "%"}, {"measurement": "Recovery in pull-down by recombinant LXRα", "setting": "human LXRα [4]; spiked at 0.25 μg/L", "result": "100%±3%"}, {"measurement": "Recovery in pull-down by recombinant LXRα", "setting": "human LXRα [4]; spiked at 2.5 μg/L", "result": "85%±5%"}, {"measurement": "Recovery in pull-down by recombinant LXRα", "setting": "human LXRα [4]; spiked at 25 μg/L", "result": "80%±0.7%"}, {"measurement": "Recovery in pull-down by recombinant LXRα", "setting": "human LXRα [4]; spiked at 250 μg/L", "result": "92%±4%"}, {"measurement": "ABCA1 gene expression in cells co-exposed to TPHP, versus TPHP alone", "setting": "ABCA1", "result": "dose-dependently higher"}, {"measurement": "ABCG1 gene expression in cells co-exposed to TPHP, versus TPHP alone", "setting": "ABCG1", "result": "dose-dependently higher"}]}
